Measurements taken from US6441193B1, “Estrogen agonists/antagonists” (Pfizer Inc., priority 1995, dated 2002).

Assays:
ventral prostate = conditions: male rats; cited from earlier work
prostate = assay: Effect on prostate weight (wet prostate weight after 14 days of daily subcutaneous injection); type: in vivo, rat; conditions: male Sprague-Dawley rats, s.c. daily for 14 days
Protocol: Male Sprague-Dawley rats, three months of age are administered by subcutaneous injection either vehicle (10% ethanol in water), estradiol (30 μg/kg), testosterone (1 mg/kg) or a compound of formula I daily for 14 days (n=6/group). After 14 days the animals are sacrificed, the prostate is removed and the wet prostate weight is determined. Mean weight is determined and statistical significance (p<0.05) is determined compared to the vehicle-treated group using Student's t-test.

Which “effect on ventral prostate” value (ventral prostate) does the source give for `O=C(c1ccc(OCCN2CCCCC2)cc1)c1c(-c2ccc(O)cc2)sc2cc(O)ccc12` [raloxifene, 6-hydroxy-2-(4-hydroxyphenyl)-3-[4-(2-piperidinoethoxy)benzoyl] benzo[b] thiophene] here?
Its value is “regression of the ventral prostate”.

Which “wet prostate weight compared to vehicle” value (prostate; 30 μg/kg) does the source give for `C[C@]12CC[C@@H]3c4ccc(O)cc4CC[C@H]3[C@@H]1CC[C@@H]2O` [estrogen, estradiol] here?
The value was “significantly reduces prostate weight”.

With `C[C@]12CC[C@H]3[C@@H](CCC4=CC(=O)CC[C@@]43C)[C@@H]1CC[C@@H]2O` [Testosterone, testosterone] as the compound, how does the “wet prostate weight compared to vehicle” value (prostate; testosterone 1 mg/kg) read?
Its value is “no effect”.
